From patent US20250017915A1, “METHOD OF TREATING CANCER ASSOCIATED WITH RAS MUTATION” (The Board of Trustees of the University of Illinois, priority 2021, published 2025) come the findings set out here.

The test system of assay [1] is Panc1 cells. The assay is described as follows: Cell growth assay (percent confluence). The class given is cell-based, human. The following applies: Panc1, 1 μM each drug, until DMSO-treated cells reached 100% confluence. As for the experimental part: (§1) For cell growth assays, a fixed number of serum starved tumor cells were seeded into each well of a 24 well plate to reach 10% confluence, the subsequent percent confluence evaluated every 4 hours until the control group reached 100% confluence. For cell viability assays, 2,000-4,000 cells were seeded into each well of a 96-well plate in serum free DMEM. After 16 hours, media/drug was added and cells cultured for 72 hours. At this time, we added 20 ul of a 5 mg/ml 3-(4,5-Dimethyl-2-thiazolyl)-2,5-diphenyl-2H-tetrazolium bromide (MTT) solution to each well […]. After two hours, media was aspirated and crystals dissolved in DMSO and 570 nm absorbance determined by plate reader.

Assay [2] relates to Panc1 cells. Put plainly: Cell viability, MTT assay. The class given is cell-based, human. The following applies: Panc1, increasing concentrations, with or without 1 μM SGC-CBP30, 48 hours. As for the experimental part:
as §1
After 48 hours, we examined changes in cell viability via MTT assay.

Assay [3] relates to Panc1 cells. The assay is described as follows: RNA sequencing and gene set enrichment analysis. The class given is cell-based, human. The following applies: Panc1, 1 μM, 24 hours, RNA sequencing. As for the experimental part: After 24 hours RNA was extracted using the RNeasy Plus Mini Kit (Qiagen, Hilden, Germany) per the manufacturer's instructions. Quality control, sequencing, and data analysis were performed by Novogene.

In a further assay the test system is BRD4 and EP300/CBP. Put plainly: Immunoprecipitation of BRD4 and EP300/CBP, Panc1. The class given is cell-based, human. The following applies: Panc1, 1 μM. As for the experimental part:
For immunoprecipitation, cell lysates were collected using IP buffer (25 mM Tris-HCl pH 7.5, 150 mM NaCl, 1 mM EDTA, 0.1% NP-40 and 5% glycerol) with a protease and phosphatase inhibitory cocktail (Cell Signaling), and cell extracts were incubated overnight with the respective antibodies followed by incubation with protein A or G agarose beads for 4 h at 4° C. After washing 5-7 times with lysis buffer, immunocomplexes were resolved using SDS-PAGE and visualized by western blot. All antibodies were compared with isotype specific IgG controls to affirm specificity. All experiments were performed in triplicate unless otherwise specified.
(§2) Using these same lysates, we also evaluated the association between BRD4 and EP300/CBP by immunoprecipitation.

Assay [4] relates to Panc1 cells. The assay is described as follows: Western blot, Panc1. The class given is cell-based, human. As for the experimental part: Cell or tissue lysates were lysed in RIPA buffer (Cell Signaling) followed by sonication. Equal amounts of protein (15-50 μg) were mixed with loading dye, boiled for 8 min, separated on a 4-20% denaturing SDS-PAGE gel and transferred to a PVDF membrane. The membrane was blocked in 5% milk/TBS/0.1% Tween for one hour and incubated with antibodies against pRB, pMEK1, MEK1, pERK1/2, ERK1/2, (Cell Signaling, Danvers, MA), H3K27ac (Active Motif, Carlsbad, CA), KRAS (Novus Bio, Saint Charles, MO), BRD4, EP300 (abcam, Cambridge, MA), or GAPDH (Santa Cruz Biotech, Santa Cruz, CA). The membrane was washed with TBS-0.1% Tween and then incubated with HRP conjugated secondary antibody (Cell Signaling) at room temperature for one hour and rewashed. Protein bands were visualized by an enhanced chemiluminescence method (Thermo Fischer, Waltham, MA) and resolved digitally per the manufacturer's specifications.
as §2

Assay [5] has as its system Pdx1-Cre×LSL-Kras^G12D×LSL-TP53^R172H+/− (KPC) mice. Put plainly: KPC mouse model of invasive PDAC, survival and endpoint tissue analysis. The class given is in vivo. The following applies: XP-524 5 mg/kg daily IP and/or anti-PD-1 200 μg. An excerpt:
(§3) Nongenic B6 (Wild Type), P48-Cre×LSL-Kras^G12D (KC), Pdx1-Cre×LSL-Kras^G12D×LSL-TP53^R172H+/− (KPC), and Pdx1-Cre×LSL-Kras^G12D×LSL-TP53^R172H+/+ (KPPC) mice were generated as described previously (24). […] Mice were euthanized at 6 months of age and tissues collected for analysis. […] KPC mice were sacrificed when moribund or showing clear signs of health decline e.g. fur loss, weight loss, or lethargy, or for non-survival studies at the fixed endpoint shown in the number of days after enrollment. For studies involving KPPC mice, animals were enrolled either when developing a 0.5 cm, palpable tumor or at 4 weeks of age. […] For euthanasia, animals were deeply anesthetized with isoflurane until unresponsive to toe tap and/or agonal breathing was observed. Thoracotomy served as the primary method of euthanasia and exsanguination the secondary method. For all mouse studies, mice were age matched within 2 weeks and males and females randomized at a 50:50 ratio.
Using these mice, we first conducted an early intervention study in which mice were allowed to develop overt PDAC for a minimum of 15 weeks, at which point 100% of mice in our colony develop focal PDAC. At this time, mice were then randomized at a 50:50 male to female ratio into one of two treatment groups (N=7/group). […]

In assay [6] the test system is Pdx1-Cre×LSL-Kras^G12D×LSL-TP53^R172H+/+ (KPPC) mice. Put plainly: KPPC mouse model of extremely aggressive PDAC, late intervention. The class given is in vivo. The settings on record: 5 mg/kg daily IP.
Description: as §3
We next conducted a late intervention study using the Pdx1-Cre×LSL-Kras^G12D×LSL-TP53^R172H+/+ (KPPC) model of extremely aggressive PDAC. In our colony, KPPC mice have a median survival of 43 days (N=12) and develop extensive PDAC as early as two weeks of age. We, therefore, enrolled mice as described either when they developed a 0.5 cm tumor or at 4 weeks of age and placed them into one of two treatment groups (N=6/group).

Regarding `COc1ccc(CCc2nc3cc(-c4c(C)noc4C)ccc3n2C[C@H](C)N2CCOCC2)cc1Cl` [SGC-CBP30], the cell growth result in the assay with Panc1 cells [1] is “marginal effect on cell growth”.
`Cc1sc2c(c1C)C(c1ccc(Cl)cc1)=N[C@@H](CC(=O)OC(C)(C)C)c1nnc(C)n1-2` [JQ-1]: the cell growth entry with Panc1 cells [1] is listed as “modest growth suppression”. For the same molecule, in the assay with Panc1 cells [2], the cell viability entry is on record as “reduction in cell viability”. Moreover, in the assay on Panc1 cells [3], the “KRAS signaling and cell cycle pathways” value is “modest suppression of KRAS and cell cycle pathways”. In the assay with BRD4 and EP300/CBP, the “co-precipitation of BRD4 and EP300/CBP” value is “modestly reduced co-precipitation of BRD4 and EP300/CBP”. In addition, the “histone acetylation (H3K27ac)” value in the assay with Panc1 cells [4] is on record as “compensatory increase in histone acetylation”.
Turning to `CCS(=O)(=O)Nc1cc(-c2cn(C)c3c(=O)[nH]ccc23)cc2c1ccn2C(C)(c1ccccn1)c1ccccn1` [XP-524], the figures for the median survival post-enrollment in assay [5] and in assay [6] were 108 days and 50 days, respectively.
